For experiment [1], the target named is T1, NLRP3 inflammasome (Homo sapiens, UniProt Q96P20).
T1 construct: freshly isolated from human peripheral blood from healthy donors; StemCells Technologies; host or cells: primary human PBMCs
The experiment is described as follows: NLRP3 inflammasome activation assay in LPS-primed, nigericin-stimulated PBMCs, IL-1β release. In kind it is cell-based. To be noted: PBMC, LPS priming, 10 μM nigericin. Summed up:
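Fresh or cryopreserved human PBMCs primed with 100 ng/mL LPS for 3 h, pre-incubated 30 min with compound (0.00017-10 uM, or 2-fold 20-point series from 40 μM), then stimulated with 10 μM nigericin for 1.5 h at 37 °C. Supernatant IL-1β measured by ELISA or by HTRF (665/620 ratio).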

For experiment [2], the system named is THP-1 ASC-GFP cells. The experiment can be described thus: THP-1 ASC-GFP speck assay (NLRP3 inflammasome activation, nigericin). Format: cell-based. To be noted: THP1-ASC-GFP; PMA-differentiated, LPS primed, 10 μM nigericin. As for the experimental part:
THP-1 ASC-GFP cell line was purchased from Invivogen, San Diego, for infammasome activation assay. THP-1 ASC-GFP cells stably express a 37.6 kDa ASC::GFP fusion protein that enables monitoring of spec formation by microscopy after activation of NLRP3 dependent inflammasome pathway. Cells were maintained at a density of 600,000 cells/mL in growth media consisting of RPMI 1640, 2 mM L-glutamine, 25 mM HEPES and 10% heat inactivated fetal bovine serum at 37° C. and 5% CO2. Cells were passaged every 3-4 days and used for assays for up to 20 passages.
THP-1 ASC-GFP cells were collected by centrifuging cells at 800 RPM for 5 minutes. Cell culture supernatant was removed and cells were re-suspended in fresh media at density of 1×10^6 cells/mL in assay media consisting of RPMI 1640, 2 mM L-glutamine, 25 mM HEPES and 10% heat inactivated fetal bovine serum. Phorbol 12-myristate 13-acetate (PMA) (Invivogen,tlrl-pma) was added to the cell suspension at a final concentration of 500 ng/ml and mixed thoroughly. 40,000 cells were added per well of a 384 well plate and differentiated into macrophages overnight at 37° C. and 5% CO2. Cells were primed with 1 μg/mL of lipopolysaccharide (Invivogen Ultrapure lipopolysaccharide from E. coli, tlrl-3pelps) in assay media for 3 hours at 37° C. and 5% CO2. After priming, media was removed and THP-1 ASC-GFP cells were preincubated with serially diluted test compounds with starting concentration of 40 μM followed by 2-fold dilution for a 20-point curve or vehicle (DMSO) for 30 min in assay media at 37° C. and 5% CO2. Cells were then stimulated with 10 μM nigericin (Invivogen, tlrl-nig-5) for 90 min at 37° C. and 5% CO2 to activate NLRP3 dependent inflammasome pathway and spec formation. After stimulation, cells were fixed with 4.8% paraformaldehyde (Electron Microscopy Sciences #15710-S) and incubated at room temperature for 15 min. Cells were then washed 3-times with 100 μL of phosphate buffered saline and permeabilized in the presence of premeablization/block buffer for 20 min at room temperature. Cells were then washed 3-times with 100 μL phosphate buffered saline and incubated for 1 hr at room temperature in the presence of hoechst. After staining with Hoechst, cells were washed 3-times with 100 μL phosphate buffered saline and imaged for ASC spec formation.
THP-1 ASC-GFP cells were imaged in 488 and Hoechst channels. Hoechst channel was used for cell count and 488 channel was used to identify number of GFP ASC specks in imaged fields. Percentage of cells with a spec was calculated by dividing the number of GFP positive spots by total number of cells.

Like-named read-outs stand apart in the source and are kept apart here.

T1 sequence (Q96P20 whole entry): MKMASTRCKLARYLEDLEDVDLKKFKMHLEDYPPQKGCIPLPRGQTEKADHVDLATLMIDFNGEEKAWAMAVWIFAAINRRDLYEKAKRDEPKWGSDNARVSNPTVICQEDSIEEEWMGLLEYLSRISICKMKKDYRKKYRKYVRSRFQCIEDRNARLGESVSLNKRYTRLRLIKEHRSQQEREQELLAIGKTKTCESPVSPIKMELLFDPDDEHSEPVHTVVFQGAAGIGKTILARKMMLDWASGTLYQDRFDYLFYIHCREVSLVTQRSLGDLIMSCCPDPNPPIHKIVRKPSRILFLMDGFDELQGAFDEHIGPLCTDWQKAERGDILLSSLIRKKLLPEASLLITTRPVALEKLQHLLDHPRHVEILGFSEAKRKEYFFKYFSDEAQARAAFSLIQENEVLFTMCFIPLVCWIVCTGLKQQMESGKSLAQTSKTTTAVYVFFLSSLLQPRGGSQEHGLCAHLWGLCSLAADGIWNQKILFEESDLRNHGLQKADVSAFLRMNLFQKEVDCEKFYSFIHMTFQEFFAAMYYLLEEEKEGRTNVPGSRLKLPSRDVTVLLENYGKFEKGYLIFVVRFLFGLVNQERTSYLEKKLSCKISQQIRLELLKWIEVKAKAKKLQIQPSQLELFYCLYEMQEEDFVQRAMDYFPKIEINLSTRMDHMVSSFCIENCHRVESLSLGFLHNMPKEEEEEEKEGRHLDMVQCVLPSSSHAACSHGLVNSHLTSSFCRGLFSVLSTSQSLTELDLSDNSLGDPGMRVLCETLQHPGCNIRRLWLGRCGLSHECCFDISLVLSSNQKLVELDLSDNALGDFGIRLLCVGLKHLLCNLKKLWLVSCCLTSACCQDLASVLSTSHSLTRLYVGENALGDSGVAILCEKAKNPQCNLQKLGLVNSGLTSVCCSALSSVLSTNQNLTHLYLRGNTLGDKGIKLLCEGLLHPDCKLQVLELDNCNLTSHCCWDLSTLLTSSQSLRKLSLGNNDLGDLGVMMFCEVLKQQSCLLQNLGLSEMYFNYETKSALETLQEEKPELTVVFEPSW

Turning to `O=C(Nc1nc(-c2ccccc2)cc(C(F)(F)F)n1)NS(=O)(=O)c1cnn2c1OCCC2` [Example 17, N-((4-phenyl-6-(trifluoromethyl)pyrimidin-2-yl)carbamoyl)-6,7-dihydro-5H-pyrazolo[5,1-b][1,3]oxazine-3-sulfonamide], the IC50 is > 10 µM in experiment [1] (read-out: PMBC IL-1β IC50) and > 9.8 µM in experiment [2]. In the same order, the values of `CC(C)c1cc(Cl)nc(NC(=O)NS(=O)(=O)c2cnn3c2OCCC3)n1` [Example 16, N-((4-chloro-6-isopropylpyrimidin-2-yl)carbamoyl)-6,7-dihydro-5H-pyrazolo[5,1-b][1,3]oxazine-3-sulfonamide] are > 10 µM and > 20 µM.

`Cc1cc(C)nc(NC(=O)NS(=O)(=O)c2cnn3c2OCCC3)n1` [Example 25, N-((4,6-dimethylpyrimidin-2-yl)carbamoyl)-6,7-dihydro-5H-pyrazolo[5,1-b][1,3]oxazine-3-sulfonamide]: the figures for the concentration for half-maximal inhibition (IC50) in experiment [1] (read-out: PMBC IL-1β IC50) and in experiment [2] were > 10 µM and > 20 µM, respectively. For `COc1cc(C)nc(NC(=O)NS(=O)(=O)c2cnn3c2OCCC3)n1` [Example 19, N-((4-methoxy-6-methylpyrimidin-2-yl)carbamoyl)-6,7-dihydro-5H-pyrazolo[5,1-b][1,3]oxazine-3-sulfonamide], the IC50 in experiment [1] (PMBC IL-1β IC50 (μM)) was > 10 µM; in experiment [2], > 20 µM. In the case of `COc1cc(OC)nc(NC(=O)NS(=O)(=O)c2cnn3c2OCCC3)n1` [Example 18, N-((4,6-dimethoxypyrimidin-2-yl)carbamoyl)-6,7-dihydro-5H-pyrazolo[5,1-b][1,3]oxazine-3-sulfonamide], the IC50 in experiment [1] (PMBC IL-1β IC50 (μM)) was > 10 µM; in experiment [2] it was > 20 µM. For `Cc1nc(NC(=O)NS(=O)(=O)c2cnn3c2OCCC3)nc2c1CCCC2` [Example 24, N-((4-methyl-5,6,7,8-tetrahydroquinazolin-2-yl)carbamoyl)-6,7-dihydro-5H-pyrazolo[5,1-b][1,3]oxazine-3-sulfonamide], the results for the half-inhibitory concentration (IC50) in experiment [1] (read-out: PMBC IL-1β IC50) and in experiment [2] were > 10 µM and > 20 µM, respectively. In the same order, the values of `CC(C)(C)c1cc(C(C)(C)C)nc(NC(=O)NS(=O)(=O)c2cnn3c2OCCC3)n1` [Example 22, N-((4,6-di-tert-butylpyrimidin-2-yl)carbamoyl)-6,7-dihydro-5H-pyrazolo[5,1-b][1,3]oxazine-3-sulfonamide] are > 10 µM and > 20 µM. In the same order, the values of `O=C(Nc1nc(-c2ccccc2)cc2c1CCC2)NS(=O)(=O)c1cnn2c1OCCC2` [Example 23, N-((3-phenyl-6,7-dihydro-5H-cyclopenta[c]pyridin-1-yl)carbamoyl)-6,7-dihydro-5H-pyrazolo[5,1-b][1,3]oxazine-3-sulfonamide] are > 10 µM and > 20 µM. Take `CN[C@@H]1COc2c(S(=O)(=O)NC(=O)Nc3c(C(C)C)nn(C(F)(F)F)c3C(C)C)cnn2C1` [Example 64a, (S)—N-((3,5-diisopropyl-1-(trifluoromethyl)-1H-pyrazol-4-yl)carbamoyl)-6-(methylamino)-6,7-dihydro-5H-pyrazolo[5,1-b][1,3]oxazine-3-sulfonamide, ammonia]: in experiment [2], the IC50 is 0.24 µM. The same measure, in the same setting: to `CC(C)c1nn(CC(F)(F)F)c(C(C)C)c1NC(=O)NS(=O)(=O)c1cnn2c1OCC(C)(C)C2` [Example 75, N-((3,5-diisopropyl-1-(2,2,2-trifluoroethyl)-1H-pyrazol-4-yl)carbamoyl)-6,6-dimethyl-6,7-dihydro-5H-pyrazolo[5,1-b][1,3]oxazine-3-sulfonamide, ammonia] belongs 0.42 µM; to `CN[C@@H]1COc2c(S(=O)(=O)NC(=O)Nc3c(C(C)C)nn(CC(F)(F)F)c3C(C)C)cnn2C1` [Example 72a, (S)—N-((3,5-diisopropyl-1-(2,2,2-trifluoroethyl)-1H-pyrazol-4-yl)carbamoyl)-6-(methylamino)-6,7-dihydro-5H-pyrazolo[5,1-b][1,3]oxazine-3-sulfonamide, ammonia], 2.5 µM; to `COc1cc(-c2cc(C(F)(F)F)nc(C(C)C)c2NC(=O)NS(=O)(=O)c2cnn3c2OCCC3)ccn1` [Example 69, Sodium N-((2-isopropyl-2′-methoxy-6-(trifluoromethyl)-[4,4′-bipyridin]-3-yl)carbamoyl)-6,7-dihydro-5H-pyrazolo[5,1-b][1,3]oxazine-3-sulfonamide], 0.52 µM. The compound `CO[C@@H]1COc2c(S(=O)(=O)NC(=O)Nc3c4c(nn3C(C)C)CCC4)cnn2C1` [Example 60a, Sodium (S)—N-((2-isopropyl-2,4,5,6-tetrahydrocyclopenta[c]pyrazol-3-yl)carbamoyl)-6-methoxy-6,7-dihydro-5H-pyrazolo[5,1-b][1,3]oxazine-3-sulfonamide] showed an IC50 in experiment [2] of 0.57 µM. `CO[C@@H]1COc2c(S(=O)(=O)NC(=O)Nc3c(C(C)C)nn(CC(F)(F)F)c3C(C)C)cnn2C1` [Example 59a, (S)—N-((3,5-diisopropyl-1-(2,2,2-trifluoroethyl)-1H-pyrazol-4-yl)carbamoyl)-6-methoxy-6,7-dihydro-5H-pyrazolo[5,1-b][1,3]oxazine-3-sulfonamide, ammonia] registered an IC50 in experiment [2] of 0.17 µM. Same read-out and setting: under `CN[C@@H]1COc2c(S(=O)(=O)NC(=O)Nc3c(C(C)C)nn(C)c3C(C)C)cnn2C1` [Example 73a, (S)—N-((3,5-diisopropyl-1-methyl-1H-pyrazol-4-yl)carbamoyl)-6-(methylamino)-6,7-dihydro-5H-pyrazolo[5,1-b][1,3]oxazine-3-sulfonamide, ammonia] stands 8.7 µM. The same measure, in the same setting: to `CC(C)c1cc(OC2CC2)nc(C(C)C)c1NC(=O)NS(=O)(=O)c1cnn2c1OCCC2` [Example 81, Sodium N-((6-cyclopropoxy-2,4-diisopropylpyridin-3-yl)carbamoyl)-6,7-dihydro-5H-pyrazolo[5,1-b][1,3]oxazine-3-sulfonamide] belongs 8.2 µM. Still for that read-out and setting: under `CN[C@@H]1COc2c(S(=O)(=O)NC(=O)Nc3c(C(C)C)nn(CC(F)F)c3C(C)C)cnn2C1` [Example 70a, (S)—N-((1-(2,2-difluoroethyl)-3,5-diisopropyl-1H-pyrazol-4-yl)carbamoyl)-6-(methylamino)-6,7-dihydro-5H-pyrazolo[5,1-b][1,3]oxazine-3-sulfonamide, ammonia] stands 4.1 µM; under `CC(C)n1nc2c(c1NC(=O)NS(=O)(=O)c1cnn3c1OCC(C)(C)C3)CCC2` [Example 61, N-((2-isopropyl-2,4,5,6-tetrahydrocyclopenta[c]pyrazol-3-yl)carbamoyl)-6,6-dimethyl-6,7-dihydro-5H-pyrazolo[5,1-b][1,3]oxazine-3-sulfonamide], 0.9 µM; under `CC(C)c1nn(CC(F)(F)F)c(C(C)C)c1NC(=O)NS(=O)(=O)c1cnn2c1OCCC2` [Example 58, N-((3,5-diisopropyl-1-(2,2,2-trifluoroethyl)-1H-pyrazol-4-yl)carbamoyl)-6,7-dihydro-5H-pyrazolo[5,1-b][1,3]oxazine-3-sulfonamide, ammonia], 0.2 µM. `O=C(Nc1nc(Cl)cc(Cl)n1)NS(=O)(=O)c1cnn2c1OCCC2` [Example 4, N-((4,6-dichloropyrimidin-2-yl)carbamoyl)-6,7-dihydro-5H-pyrazolo[5,1-b][1,3]oxazine-3-sulfonamide]: the values for the IC50 in experiment [1] (read-out: PMBC IL-1β IC50) and in experiment [2] were > 10 µM and > 20 µM, respectively. `CC(C)n1nc2c(c1NC(=O)NS(=O)(=O)c1cnn3c1OC[C@@H](N(C)C)C3)CCC2` [Example 77a, (S)-6-(dimethylamino)-N-((2-isopropyl-2,4,5,6-tetrahydrocyclopenta[c]pyrazol-3-yl)carbamoyl)-6,7-dihydro-5H-pyrazolo[5,1-b][1,3]oxazine-3-sulfonamide] returned an IC50 in experiment [2] of 1.9 µM. Same read-out and setting: to `CCn1nc(C(C)C)c(NC(=O)NS(=O)(=O)c2cnn3c2OC[C@@H](NC)C3)c1C(C)C` [Example 66a, (S)—N-((1-ethyl-3,5-diisopropyl-1H-pyrazol-4-yl)carbamoyl)-6-(methylamino)-6,7-dihydro-5H-pyrazolo[5,1-b][1,3]oxazine-3-sulfonamide, ammonia] belongs 3.6 µM.

The IC50 is the point on the concentration scale where inhibition reaches its midpoint.

Values taken from patent publication US11560391B2, “Sulfonylurea compounds as inhibitors of interleukin-1 activity” (Genentech, Inc., priority 2018, dated 2023).
